Like-named read-outs stand apart in the source and are kept apart here.

Assay [1] relates to PfNF54-s16-GFP late (IV–V) stage gametocytes. Nature of the assay: Image-based gametocyte viability assay. Conditions: Plasmodium falciparum; stages IV–V, 72 h; read-out: IC50 Late-stage Gametocytes (mean ± SD). Format: cell-based, P. falciparum. The protocol:
(§1) Viability assays were performed as described previously ([32], [33]) against PfNF54-s16-GFP early(I–III), late (IV–V), and mature (V) stage gametocytes. Gametocytes were assessed at the appropriate time points following gametogenesis; early stage (day 2), late stage (day 8), and mature stage (day 12). Compounds diluted in 4% DMSO were transferred into 384-well imaging plates; gametocytes prepared as described previously (35) were added, and plates were incubated for 72 h in 5% CO2, 5% O2, and 60% humidity at 37°C. After 72 h incubation, 5 µL of MitoTracker Red CMH2XRos in phosphate buffered saline (PBS) was added per well, and plates were incubated overnight. Image acquisition and analysis were undertaken on the Opera QEHS micro-plate confocal imaging system. An Acapella-based script using the CMH2XRos fluorescent signal and the GFP-designated object quantifying viable stage-dependent parasite morphology identified gametocytes. Gametocyte viability was calculated as a percentage of the positive (5 µM puromycin) and negative (0.4% DMSO) controls. IC50 values were calculated using a 4-parameter log dose, non-linear regression analysis, with sigmoidal dose response (variable slope) curve fit using GraphPad Prism (ver 4.0). No constraints were used in the curve fit. […] Experiments were performed as two or three biological replicates in duplicate.

Assay [2] relates to PfNF54-s16-GFP mature (V) stage gametocytes. Nature of the assay: Image-based gametocyte viability assay. In kind it is cell-based, P. falciparum. Conditions: Plasmodium falciparum, 72 h, read-out: IC50 Mature-stage Gametocytes (mean ± SD). As to the method: as §1
For assay [3], the system named is PfNF54-s16-GFP early (I–III) stage gametocytes. Description: Image-based gametocyte viability assay. Format: cell-based, P. falciparum. Conditions: Plasmodium falciparum, 72 h, read-out: IC50 Early-stage Gametocytes (mean ± SD). As to the method: Viability assays were performed as described previously ([32], [33]) against PfNF54-s16-GFP early(I–III), late (IV–V), and mature (V) stage gametocytes. Gametocytes were assessed at the appropriate time points following gametogenesis; early stage (day 2), late stage (day 8), and mature stage (day 12). Compounds diluted in 4% DMSO were transferred into 384-well imaging plates; gametocytes prepared as described previously (35) were added, and plates were incubated for 72 h in 5% CO2, 5% O2, and 60% humidity at 37°C. After 72 h incubation, 5 µL of MitoTracker Red CMH2XRos in phosphate buffered saline (PBS) was added per well, and plates were incubated overnight. Image acquisition and analysis were undertaken on the Opera QEHS micro-plate confocal imaging system. An Acapella-based script using the CMH2XRos fluorescent signal and the GFP-designated object quantifying viable stage-dependent parasite morphology identified gametocytes. Gametocyte viability was calculated as a percentage of the positive (5 µM puromycin) and negative (0.4% DMSO) controls. IC50 values were calculated using a 4-parameter log dose, non-linear regression analysis, with sigmoidal dose response (variable slope) curve fit using GraphPad Prism (ver 4.0). No constraints were used in the curve fit. Chloroquine, artesunate, pyronaridine, pyrimethamine, dihydroartemisinin (DHA), and methylene blue were used as control compounds. Experiments were performed as two or three biological replicates in duplicate.

Assay [4] concerns P. vivax clinical isolates. Nature of the assay: Ex vivo drug susceptibility assay (schizont maturation) on clinical isolates. In kind it is cell-based. The protocol:
(§2) Plasmodium isolates were collected from patients attending public health clinics in Timika (Papua, Indonesia), a region endemic for multidrug-resistant strains of P. vivax and P. falciparum ([38][–][40]). Patients with symptomatic malaria presenting to an outpatient facility were recruited into the study if infected with either P. falciparum or P. vivax, with a parasitemia of between 2,000 µL^−1 and 80,000 µL^−1, and the majority (>60%) of asexual parasites at the ring stage of development. Venous blood (5 mL) was collected by venipuncture, and after removal of patient white blood cells using Plasmodipur filters (EuroProxima B.V., The Netherlands), packed infected red blood cells (iRBCs) were used for the ex vivo drug susceptibility assay.
(§3) Drug plates were pre-dosed by diluting the compounds in 50% methanol followed by lyophilization and storage at 4°C. Drug susceptibility of P. vivax and P. falciparum isolates was measured using a protocol modified from the WHO microtest as described previously ([40], [41]). […] A candle jar was used to mature the parasites at 37.0°C for 35–56 h. […] Thick blood films made from each well were stained with 5% Giemsa solution for 30 min and examined microscopically. The number of schizonts per 200 asexual-stage parasites was determined for each drug concentration and normalized to the control well without drug. The dose response data were analyzed using non-linear regression analysis, and the EC50 value was derived using an inhibitory sigmoid Emax model (In Vitro Analysis and Reporting Tool [IVART] [42, 43]).

Assay [5] deals with P. falciparum clinical isolates. Described as above. In kind it is cell-based. As to the method: as §2, §3
Assay [6] relates to MMV1557817-resistant parasites. Description: 72 h killing assay, MMV1557817-resistant parasites versus parental Dd2. In kind it is cell-based, P. falciparum.
In assay [7] the test system is P. falciparum Dd2 parasites. Description: Fractional inhibitory concentration, artemisinin and MMV1557817 interaction. In kind it is cell-based. The protocol:
Fractional inhibitory concentrations (FIC) were determined as previously described ([44]). […] The FIC for each drug was determined by EC50 of drug in a mixture/EC50 of drug alone, and the sum of FIC was determined by the addition of the two individual FIC values. Synergistic FIC is described as <1, additive = 1 < 2, and antagonism > 2 ([44]).

In the next assay the test system is Pf3D7. Description: Parasite reduction ratio assay. In kind it is cell-based, P. falciparum. The protocol:
Assays were performed as described previously with some alterations ([37]). […] Specifically, media containing compound was placed in wells every 24 h for up 120 h. […] Parasite growth was measured at day 21 using SYBR green I as described above. Fluorescence was used to determine at what treatment day wells became positive for growth when compared with the well before it; greater than double the fluorescence was determined to be a positive well. […] Experiments were performed in two or three biological replicates in quadruplicate.

Where [8] appears, read: Plasmodium vivax, ex vivo clinical isolates, n = 6, read-out: P. vivax median EC50 (range).
The mark [9] stands for this setting: ex vivo clinical isolates, n = 6, read-out: P. vivax median EC50 (range).
Setting [10] is: Plasmodium falciparum, ex vivo clinical isolates, n = 15, read-out: P. falciparum median EC50 (range).

Consider `CN(C)c1ccc2nc3ccc(=[N+](C)C)cc-3sc2c1` [Methylene Blue, methylene blue], for which the IC50 (commonly the point on the concentration scale where inhibition reaches its midpoint) in assay [1] was 0.052 ± 0.002 µM; in assay [2], 0.063 ± 0.026 µM; in assay [3] (stages I–III), 0.11 ± 0.004 µM.

In the case of `C[C@H]1[C@@H](O)O[C@@H]2O[C@@]3(C)CC[C@H]4[C@H](C)CC[C@@H]1[C@@]24OO3` [DHA, dihydroartemisinin], the IC50 in assay [1] is 0.035 ± 0.012 µM; in assay [2], 0.103 ± 0.03 µM; in assay [3] (stages I–III), 0.016 ± 0.002 µM.

Regarding `Clc1ccc2c(N3CCN(CCCN4CCN(c5ccnc6cc(Cl)ccc56)CC4)CC3)ccnc2c1` [piperaquine], the 50% effective concentration (EC50) – broadly, the concentration needed to bring the measured effect to its halfway point – was determined as 0.0466 µM in assay [4] (setting [8]); 0.047 µM in assay [4] (setting [9]); 0.0608 µM in assay [5] (setting [10]); 0.061 µM in assay [5] (ex vivo clinical isolates, n = 15, read-out: P. falciparum median EC50 (range)).

On to `OC(c1cc(C(F)(F)F)nc2c(C(F)(F)F)cccc12)C1CCCCN1` (stereo not drawn) [mefloquine], for which the EC50 turned out to be 0.0112 µM in assay [4] (setting [8]), 0.011 µM in assay [4] (setting [9]) and 0.01 µM in assay [5] (setting [10]).

With `COc1ccc2nc3cc(Cl)ccc3c(Nc3cc(CN4CCCC4)c(O)c(CN4CCCC4)c3)c2n1` [pyronaridine], the IC50 in assay [1] is 2.28 ± 0.679 µM; in assay [2], 1.25 ± 0.12 µM; in assay [3] (stages I–III), 0.067 ± 0.007 µM.

For the compound `C[C@@H]1CC[C@H]2[C@@H](C)C(=O)O[C@@H]3O[C@@]4(C)CC[C@@H]1[C@]32OO4` [artemisinin, reference compound], in assay [6], the “change of susceptibility compared with parental Dd2” value was “marginally but significantly sensitized”. For the same compound, the “artemisinin mean FIC ± SEM” value is 1.00 ± 0.12 in assay [7] (ratio MMV1557817:artemisinin 0:5); 0.75 ± 0.07 in assay [7] (ratio MMV1557817:artemisinin 1:4); 0.37 ± 0.06 in assay [7] (ratio MMV1557817:artemisinin 2:3); 0.16 ± 0.03 in assay [7] (ratio MMV1557817:artemisinin 3:2); 0.06 ± 0.01 in assay [7] (ratio MMV1557817:artemisinin 4:1).

Consider `CCN(CC)CCCC(C)Nc1ccnc2cc(Cl)ccc12` (stereo not drawn) [chloroquine], for which, in assay [3], the IC50 came out at 0.157 ± 0.0035 µM. In addition, the EC50 in assay [4] (Plasmodium vivax, read-out: P. vivax median EC50 (range), ex vivo clinical isolates, n = 6) amounted to 0.036 µM; in assay [4] (read-out: P. vivax median EC50 (range), ex vivo clinical isolates, n = 6, listed as CQ), 0.0364 µM; in assay [5] (Plasmodium falciparum, read-out: P. falciparum median EC50 (range), ex vivo clinical isolates, n = 15), 0.065 µM; in assay [5] (read-out: P. falciparum median EC50 (range), ex vivo clinical isolates, n = 15, listed as CQ), 0.0648 µM. The “99.9% PCT” value in the assay with Pf3D7 (Pf3D7, 10× EC50) is 53 h. In addition, in the assay on Pf3D7 (Pf3D7, 10× EC50), the Lag phase came to 0 h. The “Log (PRR)” value in the assay on Pf3D7 (Pf3D7, 10× EC50, over one cycle) was found to be 3.9 ± 0.2.

For the compound `COc1ccc(C[C@H](N)C(=O)N[C@H]2[C@@H](O)[C@H](n3cnc4c(N(C)C)ncnc43)O[C@@H]2CO)cc1` [puromycin], the IC50 in assay [1] was 0.094 ± 0.005 µM; in assay [2], 0.073 ± 0.024 µM; in assay [3] (stages I–III), 0.163 ± 0.018 µM.

For the origin of these results see paper PMC11237774, “On-target, dual aminopeptidase inhibition provides cross-species antimalarial activity” (mBio, 2024).
